Drawing on the SangsterLogP compilation, this text covers logD for 16 compounds.

A word on the logD: it is the decadic logarithm of the distribution of all forms, ionised or not, between an organic phase and buffer at a given pH.

The first data set can be described thus: method code SF-ESR, from DOI: 10.3109/10715769009149900, PMID: 2175281. Conditions: pH 2.5.
As for `CC1(C)[C@H](C(=O)O)[C@H](C(=O)O)C(C)(C)N1O`, the log distribution coefficient (logD) stood at 0.46.
The same measure, in the same setting: for `CC1(C)C=C(C(=O)O)C(C)(C)N1O` the value was 1.11.

Still in this data set, the particulars now being: pH 7.0.
On to `CC1(C)CC(C(N)=O)C(C)(C)N1O` (stereo unspecified), for which the logD was -0.21.
Still for that read-out and setting: the same measure for `CC1(C)C=CCC(C)(C)N1O`: 1.78; for `CC1(C)CC(CO)C(C)(C)N1O` (stereo unspecified): 0.34.
The compound `CC1(C)C=CC(C)(C)N1O` returned a pH-dependent lipophilicity (logD) of 1.31.
Still for that read-out and setting: for `CC1(C)C=C(C(N)=O)C(C)(C)N1O` the value was 0.25; for `CC1(C)CC(=O)CC(C)(C)N1O`, 0.12; for `CC1(C)CC(O)CC(C)(C)N1O`, 0.63.

The data set is the same for the next values; noted with them: pH 12.0.
For `CC1(C)C=C(CN2CCOCC2)CC(C)(C)N1O`, the log distribution coefficient (logD) was 1.14.
The same measure, in the same setting: the same measure for `CC1(C)CC(CN)C(C)(C)N1O` (stereo unspecified): 0.36.
Still for that read-out and setting: for `CC1(C)CC(N)C(C)(C)N1O` (stereo unspecified) the value was 1.03.
The same measure, in the same setting: for `CN(C)CCN(C)CC1=CC(C)(C)N(O)C1(C)C` the value was 0.91.
Compound `CC1(C)C=C(CN2CCCCC2)CC(C)(C)N1O` returned a logD of 1.58.
`CN(C)CC1=CC(C)(C)N(O)C1(C)C` gave a logD of 0.7.
The same measure, in the same setting: the same measure for `CC1(C)C=C(CN2CCCCC2)C(C)(C)N1O`: 1.88.
